Patent publication US12371428B2 (Exelixis, Inc., priority 2019, dated 2025)

What was measured:
[1] = biological target: Human MET (residues 956-1390) (Homo sapiens (Human), UniProt P08581); assay: Human Met kinase assay, HTRF KinEase (Example D-2); type: biochemical; details: protocol of Example D-2 (other compounds); read-out: c-Met IC50
In short: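 IC50 values come from a 4-parameter logistic fit of the […] fluorescence ratio, set between DMSO (100%) and reference compound at 1 μM (0%). Reactions held MET 956-1390 at 0.1 ng/well, ATP at Km, biotinylated peptide, 5 mM MgCl2, 1 mM MnCl2, 1 mM DTT and 3% DMSO, and ran 40 min at room temperature before streptavidin-XL665/Eu-antibody detection.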

[2] = biological target: KDR (phospho-KDR, VEGF165-stimulated HUVEC cells) (Homo sapiens (Human), UniProt P35968); assay: KDR autophosphorylation ELISA in HUVEC cells (Example G); type: cell-based; details: cellular activity; KDR autophosphorylation ELISA in HUVEC cells
KDR (phospho-KDR, VEGF165-stimulated HUVEC cells), sequence (P35968 20-1356): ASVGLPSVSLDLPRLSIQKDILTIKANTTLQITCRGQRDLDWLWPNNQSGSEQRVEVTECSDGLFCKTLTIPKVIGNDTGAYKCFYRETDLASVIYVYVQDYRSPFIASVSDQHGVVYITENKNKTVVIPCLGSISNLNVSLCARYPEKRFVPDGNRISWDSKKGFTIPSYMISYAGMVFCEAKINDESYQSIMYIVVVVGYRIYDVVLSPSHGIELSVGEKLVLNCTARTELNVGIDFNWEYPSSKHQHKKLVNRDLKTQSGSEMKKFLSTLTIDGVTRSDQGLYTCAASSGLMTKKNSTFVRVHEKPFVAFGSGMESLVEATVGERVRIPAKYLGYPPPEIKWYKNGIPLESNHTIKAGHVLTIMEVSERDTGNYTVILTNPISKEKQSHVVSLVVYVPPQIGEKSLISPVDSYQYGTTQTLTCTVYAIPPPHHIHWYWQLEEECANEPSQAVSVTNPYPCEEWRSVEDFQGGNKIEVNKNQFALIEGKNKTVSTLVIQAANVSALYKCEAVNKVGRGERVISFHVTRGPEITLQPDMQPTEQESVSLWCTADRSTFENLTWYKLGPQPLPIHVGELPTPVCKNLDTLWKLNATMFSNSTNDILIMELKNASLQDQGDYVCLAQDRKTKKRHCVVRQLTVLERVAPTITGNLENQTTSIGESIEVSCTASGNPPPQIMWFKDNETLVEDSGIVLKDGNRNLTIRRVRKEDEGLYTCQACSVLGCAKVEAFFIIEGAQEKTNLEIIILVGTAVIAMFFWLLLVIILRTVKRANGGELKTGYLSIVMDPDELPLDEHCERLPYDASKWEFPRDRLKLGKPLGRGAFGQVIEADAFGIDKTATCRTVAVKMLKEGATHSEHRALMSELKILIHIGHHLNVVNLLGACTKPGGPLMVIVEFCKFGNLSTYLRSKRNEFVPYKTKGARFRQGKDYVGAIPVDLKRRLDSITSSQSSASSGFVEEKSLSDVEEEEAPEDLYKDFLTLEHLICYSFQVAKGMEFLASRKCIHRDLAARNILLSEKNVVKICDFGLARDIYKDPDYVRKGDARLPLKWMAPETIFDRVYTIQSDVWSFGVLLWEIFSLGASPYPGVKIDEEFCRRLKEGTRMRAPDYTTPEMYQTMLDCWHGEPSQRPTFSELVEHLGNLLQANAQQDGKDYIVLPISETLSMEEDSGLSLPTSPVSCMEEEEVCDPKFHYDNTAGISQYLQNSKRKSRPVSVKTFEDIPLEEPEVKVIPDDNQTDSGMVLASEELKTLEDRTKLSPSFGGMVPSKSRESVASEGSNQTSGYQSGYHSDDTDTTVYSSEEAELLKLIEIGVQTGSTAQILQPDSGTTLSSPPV
In short: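 Cells seeded, grown 24 h at 37 °C, starved 24 h serum-free; cpd 8-pt curve, 0.3% DMSO, 1 h; VEGF165 100 ng/mL, 5 min; cold PBS wash, lysis with orthovanadate and protease/phosphatase inhibitors; pKDR ELISA; IC50 by 4-parameter logistic regression.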

Human MET (residues 956-1390), sequence (P08581 956-1390): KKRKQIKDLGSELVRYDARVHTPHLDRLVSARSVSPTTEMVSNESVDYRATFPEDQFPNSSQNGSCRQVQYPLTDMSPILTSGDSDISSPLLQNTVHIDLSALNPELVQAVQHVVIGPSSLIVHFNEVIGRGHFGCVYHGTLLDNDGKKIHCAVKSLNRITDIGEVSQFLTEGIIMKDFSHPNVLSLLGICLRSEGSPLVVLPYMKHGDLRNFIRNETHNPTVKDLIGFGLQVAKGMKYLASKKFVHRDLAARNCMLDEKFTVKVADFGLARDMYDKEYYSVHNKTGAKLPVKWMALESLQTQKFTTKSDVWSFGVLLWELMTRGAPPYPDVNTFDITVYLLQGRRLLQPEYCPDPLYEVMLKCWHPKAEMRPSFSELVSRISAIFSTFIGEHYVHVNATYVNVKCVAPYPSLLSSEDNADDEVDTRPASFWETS

| IC50 [1] [nM] | IC50 [2] [nM] | SMILES |
| --- | --- | --- |
| < 100 | < 100 | COc1cc2nccc(Oc3ccc(NC(=O)c4c(C)ccn(-c5ccc(F)cc5)c4=O)cc3F)c2nc1OC [Compound 286, N-[4-[(6,7-Dimethoxy-1,5-naphthyridin-4-yl)oxy]-3-fluorophenyl]-1-(4-fluorophenyl)-4-methyl-2-oxopyridine-3-carboxamide] |
| 100 to 300 | < 100 | COc1ccc2nccc(Oc3ccc(NC(=O)c4c(C)ccn(-c5ccc(F)cc5)c4=O)cc3F)c2n1 [Compound 287, N-[3-Fluoro-4-[(6-methoxy-1,5-naphthyridin-4-yl)oxy]phenyl]-1-(4-fluorophenyl)-4-methyl-2-oxopyridine-3-carboxamide] |
| < 100 | < 100 | COc1cc2nccc(Oc3ccc(NC(=O)c4c(C)cc(C)n(-c5ccc(F)cc5)c4=O)cc3)c2nc1OC [Compound 288, N-[4-[(6,7-Dimethoxy-1,5-naphthyridin-4-yl)oxy]phenyl]-1-(4-fluorophenyl)-4,6-dimethyl-2-oxopyridine-3-carboxamide] |
| < 100 | < 100 | COc1ccc2nccc(Oc3ccc(NC(=O)c4cccn(-c5ccc(F)cc5)c4=O)cc3F)c2n1 [Compound 292, N-[3-Fluoro-4-[(6-methoxy-1,5-naphthyridin-4-yl)oxy]phenyl]-1-(4-fluorophenyl)-2-oxopyridine-3-carboxamide] |
| < 100 | < 100 | COc1cc2nccc(Oc3ccc(NC(=O)c4cccn(-c5ccc(F)cc5)c4=O)cc3F)c2nc1OC [Compound 293, N-[4-[(6,7-Dimethoxy-1,5-naphthyridin-4-yl)oxy]-3-fluorophenyl]-1-(4-fluorophenyl)-2-oxopyridine-3-carboxamide] |
| < 100 | < 100 | COc1cnc2c(Oc3ccc(NC(=O)c4c(C)ccn(-c5ccc(F)cc5)c4=O)cc3F)ccnc2c1 [Compound 294, N-[3-Fluoro-4-[(7-methoxy-1,5-naphthyridin-4-yl)oxy]phenyl]-1-(4-fluorophenyl)-4-methyl-2-oxopyridine-3-carboxamide] |

Further lines, the compound ahead of its results:

| SMILES | IC50 [1] [nM] | IC50 [2] [nM] |
| --- | --- | --- |
| CCn1cc(C(=O)Nc2ccc(Oc3ccnc4cc(OC)c(OC)nc34)cc2)c(=O)c(-c2ccc(F)cc2C)c1CO [Compound 284, N-[4-[(6,7-Dimethoxy-1,5-naphthyridin-4-yl)oxy]phenyl]-1-ethyl-5-(4-fluoro-2-methylphenyl)-6-(hydroxymethyl)-4-oxopyridine-3-carboxamide] | < 100 | > 300 |
| CCn1cc(C(=O)Nc2ccc(Oc3ccnc4cc(OC)cnc34)c(F)c2)c(=O)c(-c2ccc(F)cc2C)c1CO [Compound 285, 1-Ethyl-N-[3-fluoro-4-[(7-methoxy-1,5-naphthyridin-4-yl)oxy]phenyl]-5-(4-fluoro-2-methylphenyl)-6-(hydroxymethyl)-4-oxopyridine-3-carboxamide] | < 100 | > 300 |
| COc1cnc2c(Oc3ccc(NC(=O)c4c(C)cc(C)n(-c5ccc(F)cc5)c4=O)cc3)ccnc2c1 [Compound 289, 1-(4-Fluorophenyl)-N-[4-[(7-methoxy-1,5-naphthyridin-4-yl)oxy]phenyl]-4,6-dimethyl-2-oxopyridine-3-carboxamide] | < 100 | < 100 |
| COc1ccc2nccc(Oc3ccc(NC(=O)c4c(C)cc(C)n(-c5ccc(F)cc5)c4=O)cc3)c2n1 [Compound 290, 1-(4-Fluorophenyl)-N-[4-[(6-methoxy-1,5-naphthyridin-4-yl)oxy]phenyl]-4,6-dimethyl-2-oxopyridine-3-carboxamide] | 100 to 300 | < 100 |
| COc1cnc2c(Oc3ccc(NC(=O)c4cccn(-c5ccc(F)cc5)c4=O)cc3F)ccnc2c1 [Compound 291, N-[3-Fluoro-4-[(7-methoxy-1,5-naphthyridin-4-yl)oxy]phenyl]-1-(4-fluorophenyl)-2-oxopyridine-3-carboxamide] | < 100 | < 100 |
